According to patent publication US20090074740A1, “Use of haptoglobin genotyping in diagnosis and treatment of defective reverse cholesterol transport (RCT)” (priority 2007, published 2009):
“And” between values parts separate entries of the source, which are not always exact repeats. Identical values can stand only once. “Also recorded” adds a separate entry of the source.

How the values were obtained:
[1] = per 1 mg, National Formulary; cited from earlier work
[2] = ICARE study: vitamin E versus placebo in Hp 2-2 Type II DM individuals (MI, stroke, CVD death); format: in vivo, human
Excerpt: The study protocol of the ICARE study involves the following: participants were drawn from 47 primary health clinics of the Clalit Health Services in the northern sector of Israel. Patients were eligible for the study if they had Type II DM and were 55 years of age or older. […] These Hp 2-2 individuals were randomly assigned to treatment with either vitamin E or placebo. The major study outcomes (MI, stroke, CVD death) were identified prospectively in this population over an 18 month period. A preplanned secondary analysis of ICARE was to assess the ability of vitamin E therapy to influence outcomes in those ICARE participants who were also taking statins. Statin use as prospectively defined in ICARE was based on the use of statins by the participant in at least eight of the twelve months preceding enrollment of the participant in the study. The decision to use statins for a particular participant was under the discretion of the patient's primary care physician and was in no way influenced by the patient's participation in the ICARE study.
Robust clinical data has shown that individuals homozygous for the Hp 2 allele (Hp 2-2 genotype), 40% of DM individuals, have an up to 500% increased risk of CVD (21-24). A vast amount of basic science, animal and epidemiological data has provided the logic for targeting vitamin E administration specifically to DM individuals with the Hp 2-2 genotype. In the ICARE study (Israel CArdiovascular events Reduction with vitamin E (ClinicalTrials.gov# NCT00220831)) a prospective randomized placebo controlled trial of vitamin E therapy in DM individuals with the Hp 2-2 genotype, is was shown that vitamin E therapy results in a 50% reduction in CVD events. However, only about half of the Hp 2-2 DM participants in ICARE received statin therapy.

J774 macrophages = assay: Cholesterol efflux from J774 macrophages elicited by serum from Hp 2-2 DM mice treated with vitamin E; format: in vivo; settings: 40 mg/kg/day beginning three weeks after induction of DM, serum on J774 cells
Excerpt: (§1) Hp transgenic mice and veneration of DM. All protocols were approved by the Animal Care and Use Committee of the Technion. […]. The characterization and generation of Hp 1 and Hp 2 mice in a C57B1/6 genetic background has previously been described in detail. Briefly, the murine Hp 1 allele is the wild type murine Hp allele. The Hp 2 allele exists only in man and a murine Hp 2 allele was genetically engineered in vitro and its insertion targeted at the Hp locus by homologous recombination. […] Diabetes was generated in these mice at 8 weeks of age using a low dose streptozotocin protocol (NIH Funded Consortium on Animal Models of Diabetic Complications protocol available on the consortium web site www.amdcc.org) and confirmed by measuring plasma glucose. Mice were diabetic for at least 1 month prior to analysis.
(§2) Vitamin E (racemic, alpha-tocopherol acetate, Merck) was administered to a subset of the Hp 2-2 DM mice at a dose of 40 mg/kg/day beginning three weeks after the induction of DM.

[3] = Glucose control and lipid profile in Hp 2-2 DM mice given vitamin E; format: in vivo; settings: 40 mg/kg/day
Excerpt: as §1, §2

J774 macrophage cells = assay: HDL-mediated cholesterol efflux from J774 cells incubated with purified HDL, native or glycated Hb and Hp; format: cell-based, murine; settings: efflux with purified HDL taken as 100%; 0.8 umol/L; 3-hour incubation
Method: Cell Culture. J774 A.1 murine macrophage cells were purchased from the American Type Culture Collection (Manassas, Va.) and grown in DMEM supplemented with 5% FBS.
Cholesterol Efflux From Macrophages. Murine J774 cells (1×10^6/mL) were plated in 24-well plates for 48 hours, then washed and incubated in DMEM without serum containing ^3H-cholesterol (2 uCi/mL) for 1 hour. Cells were washed to remove unincorporated label and then incubated in 1 mL of DMEM supplemented with: (1) nothing (negative control); (2) purified HDL (100 ug/mL protein) (positive control); or (3) 30 uL of serum from individuals with or without DM with the different Hp genotypes. In studies using purified Hp and Hb rather than serum, the cells were incubated with purified HDL ([…] protein) with different combinations of native Hb, glycated Hb, Hp1-1, and Hp2-2 (all at 0.8 umol/L).
After a 3-hour incubation at 37° C. to permit efflux of ^3H-cholesterol from the cells into the medium, 500 uL of the medium was collected, the cells washed with PBS, and 0.1 N NaOH added to the cells. Cellular and medium ^3H-cholesterol were determined by liquid scintillation counting (LSC). The percentage of cholesterol efflux was calculated as the ratio of total counts per minute in the medium divided by the total counts per minute in the medium and in the cells. HDL-mediated cholesterol efflux (resulting from purified HDL or HDL found in the serum) was calculated after subtraction of the nonspecific efflux obtained in cells incubated in the absence of purified HDL or serum. Results reported for efflux elicited by serum samples are normalized for the serum HDL concentration derived as (measured efflux)(measured HDL in mg/dL)/50.

HDL associated lipids = assay: Measurement of HDL-associated lipid peroxides; format: biochemical, human; settings: Hb 1 umol/L, 100 ug HDL
Method: Measurement of HDL-Associated Lipid Peroxides. Glycosylated or nonglycosylated Hb (1 umol/L) was incubated with 100 ug of HDL and 20 umol/L ascorbic acid in PBS with or without Hp1-1 or Hp2-2 (equimolar to Hb) for 3 hours at 37° C. Lipid peroxides were measured as previously described.

For Cc1c(C)c2c(c(C)c1O)CCC(C)(CCCC(C)CCCC(C)CCCC(C)C)O2 (racemic) [all-rac-.alpha-tocopherol], the “specific activity of 1 mg” value [1] is listed as 1.10 IU.

In the case of CC(=O)Oc1c(C)c(C)c2c(c1C)CCC(C)(CCCC(C)CCCC(C)CCCC(C)C)O2 (racemic) [all-rac-α-tocopherol acetate], the “specific activity of 1 mg” value [1] is given as 1.00 IU.

For CC(=O)Oc1c(C)c(C)c2c(c1C)CCC(C)(CCC[C@H](C)CCC[C@H](C)CCCC(C)C)O2 (mixture of isomers) [vitamin E, alpha-tocopherol acetate], the “reduction in CVD events” value ([2]; DM individuals with the Hp 2-2 genotype, ICARE overall) was 50%, the “event rate (MI, stroke, CVD death)” value ([2]; Hp 2-2 DM individuals taking statins in at least eight of the twelve months before enrollment, 18 month period) was 1.3% and the “event rate (MI, stroke, CVD death)” value ([2]; Hp 2-2 DM individuals taking statins in at least one of the twelve months before enrollment) was 1.7%. The “hazard ratio [HR] versus placebo” value ([2]; Hp 2-2 DM individuals taking statins, 95% CI 0.15-0.83) was 0.31, the “effect on the impairment in cholesterol efflux produced by DM in Hp 2 mice” value (J774 macrophages) was “prevented; also recorded: prevent the impairment in efflux” and the “effect on the impairment in cholesterol efflux produced by DM in Hp 2 mice” value (J774 macrophages; listed as Vitamin E) was “prevent the impairment in efflux”. The “effect on glucose control” value [3] was “no effect” and the “effect on the lipid profile” value [3] was “no effect”.

For CC(=O)Oc1c(C)c(C)c2c(c1C)CC[C@@](C)(CCC[C@H](C)CCC[C@H](C)CCCC(C)C)O2 [RRR-.alpha-tocopherol acetate], the “specific activity of 1 mg” value [1] is given as 1.36 IU.

For Cc1c(C)c2c(c(C)c1O)CC[C@@](C)(CCC[C@H](C)CCC[C@H](C)CCCC(C)C)O2 [RRR-.alpha-tocopherol], the “specific activity of 1 mg” value [1] is given as 1.49 IU.

With “glycated Hb: Human hemoglobin glycated in vitro using glycolaldehyde” the “reduction in HDL-mediated cholesterol efflux” value (J774 macrophage cells) was 35% and 34±3% and the “increase in HDL-associated lipid peroxides” value (HDL associated lipids; 20 umol/L ascorbic acid, 3 hours at 37 C, mean of 2 independent experiments) was 142.3 nmol of lipid peroxide per milligram of HDL.

In the case of “native Hb: Native hemoglobin isolated from fresh human blood”, the “effect on HDL-mediated efflux of 3H-cholesterol” value (J774 macrophage cells) is reported as “did not cause any reduction; also recorded: no effect” and the “increase in HDL-associated lipid peroxides” value (HDL associated lipids; 3 hours) is reported as “no increase”.

B1: Haptoglobin: Highly conserved plasma glycoprotein, the major protein that binds free hemoglobin (protein, UniProt P00738 19-406, looked up)
Haptoglobin: VDSGNDVTDIADDGCPKPPEIAHGYVEHSVRYQCKNYYKLRTEGDGVYTLNDKKQWINKAVGDKLPECEADDGCPKPPEIAHGYVEHSVRYQCKNYYKLRTEGDGVYTLNNEKQWINKAVGDKLPECEAVCGKPKNPANPVQRILGGHLDAKGSFPWQAKMVSHHNLTTGATLINEQWLLTTAKNLFLNHSENATAKDIAPTLTLYVGKKQLVEIEKVVLHPNYSQVDIGLIKLKQKVSVNERVMPICLPSKDYAEVGRVGYVSGWGRNANFKFTDHLKYVMLPVADQDQCIRHYEGSTVPEKKTPKSPVGVQPILNEHTFCAGMSKYQEDTCYGDAGSAFAVHDLEEDTWYATGILSFDKSCAVAEYGVYVKVTSIQDWVQKTIAEN
In the case of B1, the “effect on HDL-mediated efflux of 3H-cholesterol” value (J774 macrophage cells) is reported as “no effect”.
